{
  "source": "patent US7183255B2",
  "about": "“Method for stabilizing blood pressure in hemodialysis subjects” (Intradialytic Pharmaceuticals, priority 2003, dated 2007)",
  "format_in_all_cases": "in vivo, human",
  "key": {"[1]": {"assay": "Plasma AVP (radioimmunoassay) during constant AVP infusion, control vs hemodialysis periods (Example 1)", "design": "plasma concentration of AVP at 2 h: unit not given here", "conditions": "for plasma concentration of AVP at 2 h: ESRD patients, n=4", "method": "(§1) Healthy controls and patients with end-stage renal disease (e.g. defined as creatinine clearance of less than 10 ml/min) were studied. The studies were conducted on regularly scheduled hemodialysis days. The duration of hemodialysis remained the same as that prescribed prior to the study period. AVP or placebo (normal saline) was administered at a constant rate of 0.15, 0.3 or o.6 mU/kg/min through a venous line (controls) or through the venous limb of the dialysis circuit (hemodialysis patients). The patient's hemodialysis prescription remained unchanged except for the administration of AVP or placebo. Intradialytic hypotension was treated in the customary manner with the infusion of isotonic and hypertonic fluids.\n(§2) Serum AVP levels were determined by a radioimmunoassay technique. Blood pressure was measured with a cuff-type sphygmomanometer at 20 minute intervals.\nPlasma AVP is not dialyzed. To examine whether administration of exogenous AVP could prevent intradialytic hypotension, it was first determined whether the dialysis procedure removed the hormone from the blood. To determine this, AVP was administered at doses that had no effect in normal subjects and determined the plasma concentrations and pressure responses to AVP infusion in healthy control subjects and hemodialysis patients.\nTo rule out the possibility that the lack of a rise in plasma AVP during dialysis was due to the fact that the newly secreted hormone was being dialyzed as was being secreted, we measured plasma AVP during the infusion of exogenous AVP to ERDS patients during control conditions and during hemodialysis."}, "[2]": {"system": "ESRD patients during hemodialysis", "assay": "Similar study of fluid removal by hemodialysis with AVP vs placebo (FIG. 7)", "conditions": "five patients on AVP (FIG. 7)", "excerpt": "FIG. 7 depicts greater fluid removal by hemodialysis with AVP."}, "[3]": {"system": "patients with end-stage renal disease", "assay": "Systolic arterial pressure during AVP infusion in ESRD patients off dialysis (Example 1)", "conditions": "for systolic arterial blood pressure: ESRD, n=12, M ± SD", "method": "as §1, §2\nWe discovered that patients with ERSD are hypersensitive to vasopressin's pressor action.\nThe administration of exogenous AVP to patients with ESDR led to the discovery that these patients are hyper-responsive to the vascular effect of this hormone."}, "[4]": {"assay": "Effect of hemodialysis on plasma vasopressin during constant vasopressin infusion (Example 3, Table 1)", "conditions": "for level at 1 h / level at 2 h / level at 0 h: human, plasma, iv, mean±SE; for level at 1 h: 1 h Dialysis; for level at 2 h: 2 h Dialysis; for level at 0 h: Start Dialysis", "method": "All patients were studied at regularly scheduled dialysis sessions. Patients underwent conventional hemodialysis with hollow fiber high flux polysulfone dialyzers on volumetric dialysis machines (Cobe Centrysystem 3, Gambro Renal Care Products, Inc., Lakewood, Colo.). Dialysis times were 3.5–4.5 hours. Blood flow was 300–400 mL/min and dialysate was delivered at 600 mL/min. The dialysis bath contained potassium, 2 mEq/L; calcium, 2.5 mEq/L; magnesium, 0.75 mEq/L; and bicarbonate, 40 mEq/L. In those patients who were prescribed dialysate sodium modeling and/or reduced dialysate temperature (35–37° C.) prior to the study, the parameters of these interventions were held constant throughout the study. Ultrafiltration was performed at a constant rate based on the target weight loss for that dialysis session. Oscillometric blood pressure and heart rate measurements were taken at 15–30 minute intervals.\nPlasma vasopressin concentration. Vasopressin in plasma was determined as previously described (Landry, D. W., H. R. Levin, et al. (1997). Circulation 95(5): 1122–5).\nAdministration of vasopressin. In eight normal subjects and eight patients with ESRD off dialysis, 8-arginine vasopressin (vasopressin, American Pharmaceutical Partners, Schaumberg, Ill.) in normal saline was administered through an antecubital intravenous line. In eight patients with ESRD during hemodialysis, vasopressin was infused through the venous (blood return) limb of the dialysis circuit throughout the dialysis session at a rate of 0.15 or 0.3 mU·kg^−1·min^−1.\nEffect of hemodialysis on plasma vasopressin concentration during constant infusion of hormone. To determine whether hemodialysis removes vasopressin from plasma (Shimamoto, K., T. Ando, et al. (1977). J Clin Endocrinol Metab 45(4): 818–20; Rosansky, S. J., R. Rhinehart, et al. (1991). Clin Nephrol 35(4): 158–64), we examined the effect of the procedure on the steady state plasma concentration of hormone during constant infusion. Vasopressin was infused for >1 hour to obtain a stable plasma concentration, at which time hemodialysis was initiated."}, "[5]": {"system": "ESRD patients during hemodialysis", "assay": "Fluids needed to maintain blood pressure and weight lost during hemodialysis with AVP, 5 patients (Example 1, FIG. 6)", "method": "as §1\nAVP Administration allows more fluid removal. […] Dialysis during the administration of AVP resulted both in a decreased in the amount of intravenous fluids needed to maintain blood pressure and in a greater decrease in weight.\nThe amount of fluids to maintain blood pressure during dialysis and the weight decrease were as given below: […]"}, "[6]": {"conditions": "0.15 mU/kg · min^−1, infusion 0.15 mU · kg^−1 · min^−1"}, "[7]": {"conditions": "0.3 mU/kg · min^−1, infusion 0.3 mU · kg^−1 · min^−1"}, "[8]": {"conditions": "hemodialysis with AVP, individual patients 1-5"}},
  "note": "“And” between values parts separate entries of the source, which are not always exact repeats. Identical values can stand only once. “Also recorded” adds a separate entry of the source.",
  "data": [
    {"smiles": "NC(=O)CC[C@@H]1NC(=O)[C@H](Cc2ccccc2)NC(=O)[C@H](Cc2ccc(O)cc2)NC(=O)[C@@H](N)CSSC[C@@H](C(=O)N2CCC[C@H]2C(=O)N[C@@H](CCCN=C(N)N)C(=O)NCC(N)=O)NC(=O)[C@H](CC(N)=O)NC1=O", "note": "[AVP, 8-arginine vasopressin]", "values": [
      {"measurement": "clearance of the hormone from the blood by hemodialysis", "setting": "[1]; HD instituted during constant AVP infusion", "value": "does not clear the hormone from the blood"},
      {"measurement": "plasma concentration of AVP at 2 h", "setting": "[1]; constant infusion dose 0.15, control period", "value": 25.7},
      {"measurement": "plasma concentration of AVP at 2 h", "setting": "[1]; constant infusion dose 0.15, hemodialysis period", "value": 28.9},
      {"measurement": "plasma concentration of AVP at 2 h", "setting": "[1]; constant infusion dose 0.3, control period", "value": 47.4},
      {"measurement": "plasma concentration of AVP at 2 h", "setting": "[1]; constant infusion dose 0.3, hemodialysis period", "value": 51.2},
      {"measurement": "plasma concentration of AVP at 2 h", "setting": "[1]; constant infusion dose 0.6, control period", "value": 100.0},
      {"measurement": "plasma concentration of AVP at 2 h", "setting": "[1]; constant infusion dose 0.6, hemodialysis period", "value": 104.6},
      {"measurement": "plasma level of AVP", "setting": "[1]; infusion of 0.3 mU/kg/min, hemodialysis patients and control subjects", "value": "~40", "unit": "pg/m"},
      {"measurement": "blood pressure stability and extra fluid removal", "setting": "[2]", "value": "the blood pressure was stable and extra fluid removal was possible"},
      {"measurement": "systolic arterial blood pressure", "setting": "[3]; 30 minutes of AVP infusion", "value": "162 ± 30"},
      {"measurement": "systolic arterial blood pressure", "setting": "[3]; 60 minutes of AVP infusion", "value": "161 ± 32"},
      {"measurement": "systolic arterial blood pressure", "setting": "[3]; 90 minutes of AVP infusion", "value": "161 ± 28"},
      {"measurement": "systolic arterial blood pressure", "setting": "[3]; 120 minutes of AVP infusion", "value": "150 ± 31"},
      {"measurement": "systolic arterial blood pressure", "setting": "[3]; before infusion (baseline)", "value": "153 ± 28"},
      {"measurement": "pressor action of AVP", "setting": "[3]; patients with end-stage renal disease, same dose as in normal subjects (FIG. 3B)", "value": "increases blood pressure; also recorded: increased systolic arterial blood pressure"},
      {"measurement": "level at 1 h", "setting": "[4]; [6]", "value": "0.025 ± 0.006", "unit": "ng/mL"},
      {"measurement": "level at 2 h", "setting": "[4]; [6]", "value": "0.029 ± 0.006", "unit": "ng/mL"},
      {"measurement": "level at 0 h", "setting": "[4]; [6]", "value": "0.026 ± 0.004", "unit": "ng/mL"},
      {"measurement": "level at 1 h", "setting": "[4]; [7]", "value": "0.054 ± 0.006", "unit": "ng/mL"},
      {"measurement": "level at 2 h", "setting": "[4]; [7]", "value": "0.052 ± 0.009", "unit": "ng/mL"},
      {"measurement": "level at 0 h", "setting": "[4]; [7]", "value": "0.047 ± 0.006", "unit": "ng/mL"},
      {"measurement": "change of plasma concentrations of vasopressin by hemodialysis", "setting": "[4]; steady state during constant infusion, hemodialysis initiated after >1 hour", "value": "not significantly changed"},
      {"measurement": "blood pressure stability and extra fluid removal", "setting": "[5]; all patients on AVP (FIG. 6)", "value": "the blood pressure was stable and extra fluid removal was possible"},
      {"measurement": "Fluids given to maintain blood pressure during dialysis", "setting": "[5]; [8]", "value": 0, "unit": "mL"},
      {"measurement": "Weight lost", "setting": "[5]; [8]", "value": "2.8 Kg and 1.8 Kg and 2.2 Kg (2×) and 3.0 Kg"}
    ]}
  ]
}
